Test system: Genes belonging to other category
Assay: DNA chip mRNA expression in yeast, genes belonging to other category (Table 9)
Format: cell-based, Saccharomyces cerevisiae S288C
Procedure, shortened: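 First, S288C yeast grown in YPD at 25° C. are dosed in log phase with one toxicant (growth-inhibiting, not lethal) for 2 h. Next, total RNA is extracted and poly(A) mRNA isolated and reverse-transcribed with Cy3/Cy5-dUTP. Finally, whole-genome chip fluorescence is read relative to unexposed cells.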

In the case of `N#Cc1c(Cl)c(Cl)c(Cl)c(C#N)c1Cl` [(9), 2,4,5,6-tetrachloro-1,3-benzenedicarbonitrile], the “The level of expressed mRNA in the presence of chemical substance/The level of expressed mRNA in the absence of chemical substance” value (yeast gene YER009W) is reported as 0.7, the “The level of expressed mRNA in the presence of chemical substance/The level of expressed mRNA in the absence of chemical substance” value (yeast gene YER012W) is reported as 6.7 and the “The level of expressed mRNA in the presence of chemical substance/The level of expressed mRNA in the absence of chemical substance” value (yeast gene YER029C) is reported as 1.4. For the same compound, the “The level of expressed mRNA in the presence of chemical substance/The level of expressed mRNA in the absence of chemical substance” value (yeast gene YER039C) was 1.2, the “The level of expressed mRNA in the presence of chemical substance/The level of expressed mRNA in the absence of chemical substance” value (yeast gene YER094C) was 2.3 and the “The level of expressed mRNA in the presence of chemical substance/The level of expressed mRNA in the absence of chemical substance” value (yeast gene YER098W) was 2.8. The “The level of expressed mRNA in the presence of chemical substance/The level of expressed mRNA in the absence of chemical substance” value (yeast gene YER107C) was 0.4, the “The level of expressed mRNA in the presence of chemical substance/The level of expressed mRNA in the absence of chemical substance” value (yeast gene YER130C) was 0.5 and the “The level of expressed mRNA in the presence of chemical substance/The level of expressed mRNA in the absence of chemical substance” value (yeast gene YER136W) was 1.4. For the same compound, the “The level of expressed mRNA in the presence of chemical substance/The level of expressed mRNA in the absence of chemical substance” value (yeast gene YER177W) was 1.8, the “The level of expressed mRNA in the presence of chemical substance/The level of expressed mRNA in the absence of chemical substance” value (yeast gene YER184C) was 4.6 and the “The level of expressed mRNA in the presence of chemical substance/The level of expressed mRNA in the absence of chemical substance” value (yeast gene YFL022C) was 0.5. The “The level of expressed mRNA in the presence of chemical substance/The level of expressed mRNA in the absence of chemical substance” value (yeast gene YFL028C) was 2.7, the “The level of expressed mRNA in the presence of chemical substance/The level of expressed mRNA in the absence of chemical substance” value (yeast gene YFL038C) was 2.1 and the “The level of expressed mRNA in the presence of chemical substance/The level of expressed mRNA in the absence of chemical substance” value (yeast gene YFL043C) was 2.2. For the same compound, the “The level of expressed mRNA in the presence of chemical substance/The level of expressed mRNA in the absence of chemical substance” value (yeast gene YFR050C) was 3.1, the “The level of expressed mRNA in the presence of chemical substance/The level of expressed mRNA in the absence of chemical substance” value (yeast gene YGL011C) was 2.0 and the “The level of expressed mRNA in the presence of chemical substance/The level of expressed mRNA in the absence of chemical substance” value (yeast gene YGL048C) was 2.4. The “The level of expressed mRNA in the presence of chemical substance/The level of expressed mRNA in the absence of chemical substance” value (yeast gene YGL158W) was −0.4, the “The level of expressed mRNA in the presence of chemical substance/The level of expressed mRNA in the absence of chemical substance” value (yeast gene YGL208W) was 1.4 and the “The level of expressed mRNA in the presence of chemical substance/The level of expressed mRNA in the absence of chemical substance” value (yeast gene YGL229C) was 1.8. For the same compound, the “The level of expressed mRNA in the presence of chemical substance/The level of expressed mRNA in the absence of chemical substance” value (yeast gene YGR120C) was 0.3, the “The level of expressed mRNA in the presence of chemical substance/The level of expressed mRNA in the absence of chemical substance” value (yeast gene YGR131W) was 1.9 and the “The level of expressed mRNA in the presence of chemical substance/The level of expressed mRNA in the absence of chemical substance” value (yeast gene YGR136W) was 2.1. The “The level of expressed mRNA in the presence of chemical substance/The level of expressed mRNA in the absence of chemical substance” value (yeast gene YGR189C) was 0.3, the “The level of expressed mRNA in the presence of chemical substance/The level of expressed mRNA in the absence of chemical substance” value (yeast gene YGR213C) was 7.5 and the “The level of expressed mRNA in the presence of chemical substance/The level of expressed mRNA in the absence of chemical substance” value (yeast gene YGR257C) was 1.5. For the same compound, the “The level of expressed mRNA in the presence of chemical substance/The level of expressed mRNA in the absence of chemical substance” value (yeast gene YHL024W) was 2.1, the “The level of expressed mRNA in the presence of chemical substance/The level of expressed mRNA in the absence of chemical substance” value (yeast gene YHR004C) was 1.1 and the “The level of expressed mRNA in the presence of chemical substance/The level of expressed mRNA in the absence of chemical substance” value (yeast gene YHR012W) was 4.9. The “The level of expressed mRNA in the presence of chemical substance/The level of expressed mRNA in the absence of chemical substance” value (yeast gene YHR071W) was 1.0, the “The level of expressed mRNA in the presence of chemical substance/The level of expressed mRNA in the absence of chemical substance” value (yeast gene YHR109W) was 2.4 and the “The level of expressed mRNA in the presence of chemical substance/The level of expressed mRNA in the absence of chemical substance” value (yeast gene YHR124W) was 3.0. For the same compound, the “The level of expressed mRNA in the presence of chemical substance/The level of expressed mRNA in the absence of chemical substance” value (yeast gene YHR139C) was 107.2, the “The level of expressed mRNA in the presence of chemical substance/The level of expressed mRNA in the absence of chemical substance” value (yeast gene YHR142W) was 0.4 and the “The level of expressed mRNA in the presence of chemical substance/The level of expressed mRNA in the absence of chemical substance” value (yeast gene YHR160C) was 2.3. For the same compound, the “The level of expressed mRNA in the presence of chemical substance/The level of expressed mRNA in the absence of chemical substance” value (yeast gene YHR163W) was 1.4, the “The level of expressed mRNA in the presence of chemical substance/The level of expressed mRNA in the absence of chemical substance” value (yeast gene YHR171W) was 2.1 and the “The level of expressed mRNA in the presence of chemical substance/The level of expressed mRNA in the absence of chemical substance” value (yeast gene YIL123W) was 0.1. For the same compound, the “The level of expressed mRNA in the presence of chemical substance/The level of expressed mRNA in the absence of chemical substance” value (yeast gene YIL140W) was 0.7, the “The level of expressed mRNA in the presence of chemical substance/The level of expressed mRNA in the absence of chemical substance” value (yeast gene YIR018W) was 4.0 and the “The level of expressed mRNA in the presence of chemical substance/The level of expressed mRNA in the absence of chemical substance” value (yeast gene YJL073W) was 1.7. The “The level of expressed mRNA in the presence of chemical substance/The level of expressed mRNA in the absence of chemical substance” value (yeast gene YJL089W) was 1.6, the “The level of expressed mRNA in the presence of chemical substance/The level of expressed mRNA in the absence of chemical substance” value (yeast gene YJL113W) was 1.3 and the “The level of expressed mRNA in the presence of chemical substance/The level of expressed mRNA in the absence of chemical substance” value (yeast gene YJL116C) was 2.4. For the same compound, the “The level of expressed mRNA in the presence of chemical substance/The level of expressed mRNA in the absence of chemical substance” value (yeast gene YJL146W) was 1.0, the “The level of expressed mRNA in the presence of chemical substance/The level of expressed mRNA in the absence of chemical substance” value (yeast gene YJR004C) was 0.3 and the “The level of expressed mRNA in the presence of chemical substance/The level of expressed mRNA in the absence of chemical substance” value (yeast gene YJR036C) was 1.4. The “The level of expressed mRNA in the presence of chemical substance/The level of expressed mRNA in the absence of chemical substance” value (yeast gene YJR058C) was 1.9 and the “The level of expressed mRNA in the presence of chemical substance/The level of expressed mRNA in the absence of chemical substance” value (yeast gene YJR086W) was 1.4.

— patent publication US8192962B2, “Processes for detecting toxic substances” (Daikin Industries, Ltd., priority 2001, dated 2012)
